The subject of one experiment is U87MG tumour cells. In words: Test of in vitro proliferation of U87MG tumour cells. The note with it: U87MG cells, 72 hours, read-out: U87 Cell Proliferation IC50. The format is cell-based. Here is the method:
Model 4: Test of in vitro Proliferation of U87MG Tumour Cells.
The cell growth is determined with the reagent CellTiter 96 AQueous One Solution Cell Proliferation Assay from Promega (Cat. No. G3581).

Experiment [1] concerns the target mTOR (human recombinant aa mTOR 1360-2549) (Homo sapiens (Human), UniProt P42345). Kind of experiment: mTOR enzymatic test by TR-FRET (phosphorylation of GFP-4EBP1). It counts as biochemical. The procedure, abridged: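 After a 30 min room-temperature kinase reaction, EDTA (10 mM final) and Tb-labelled phospho-Thr46 antibody (2 nM final) were added and incubated 60 min. Energy transfer from Tb to phosphorylated GFP-4EBP1 was read at 340 nm excitation, emissions 490/520 nm. Values derive from the 520/490 fluorescence ratio.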
For orientation: TR-FRET usually uses a lanthanide donor and a delayed reading to cut background.

A further experiment deals with PI3Kα (p110α/p85α) (Homo sapiens (Human), UniProt P42336). In words: PI3Kα enzymatic test by measuring the consumption of ATP. The format is biochemical. Put shortly:
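ATP consumption read out by KinaseGlo luminescence after a 90 min reaction of 1.7 μg/ml PI3Kα (p110α/p85α) with 2 μM ATP and 50 μM PIP2, buffered at pH 7.5 (Tris, 10 mM MgCl2, 1 mM EGTA, 0.03% Chaps, 1 mM DTT). Threefold dilution series over ≥10 000-fold range yield IC50.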

Setting [2] is: Homo sapiens, U-87 MG, read-out: U87 Akt-pS473 % Inhibition or IC50, nM (IC50), U87MG cells.

Read-outs that look alike come from different tables or passages of the source.

mTOR (human recombinant aa mTOR 1360-2549), sequence (P42345 1360-2549): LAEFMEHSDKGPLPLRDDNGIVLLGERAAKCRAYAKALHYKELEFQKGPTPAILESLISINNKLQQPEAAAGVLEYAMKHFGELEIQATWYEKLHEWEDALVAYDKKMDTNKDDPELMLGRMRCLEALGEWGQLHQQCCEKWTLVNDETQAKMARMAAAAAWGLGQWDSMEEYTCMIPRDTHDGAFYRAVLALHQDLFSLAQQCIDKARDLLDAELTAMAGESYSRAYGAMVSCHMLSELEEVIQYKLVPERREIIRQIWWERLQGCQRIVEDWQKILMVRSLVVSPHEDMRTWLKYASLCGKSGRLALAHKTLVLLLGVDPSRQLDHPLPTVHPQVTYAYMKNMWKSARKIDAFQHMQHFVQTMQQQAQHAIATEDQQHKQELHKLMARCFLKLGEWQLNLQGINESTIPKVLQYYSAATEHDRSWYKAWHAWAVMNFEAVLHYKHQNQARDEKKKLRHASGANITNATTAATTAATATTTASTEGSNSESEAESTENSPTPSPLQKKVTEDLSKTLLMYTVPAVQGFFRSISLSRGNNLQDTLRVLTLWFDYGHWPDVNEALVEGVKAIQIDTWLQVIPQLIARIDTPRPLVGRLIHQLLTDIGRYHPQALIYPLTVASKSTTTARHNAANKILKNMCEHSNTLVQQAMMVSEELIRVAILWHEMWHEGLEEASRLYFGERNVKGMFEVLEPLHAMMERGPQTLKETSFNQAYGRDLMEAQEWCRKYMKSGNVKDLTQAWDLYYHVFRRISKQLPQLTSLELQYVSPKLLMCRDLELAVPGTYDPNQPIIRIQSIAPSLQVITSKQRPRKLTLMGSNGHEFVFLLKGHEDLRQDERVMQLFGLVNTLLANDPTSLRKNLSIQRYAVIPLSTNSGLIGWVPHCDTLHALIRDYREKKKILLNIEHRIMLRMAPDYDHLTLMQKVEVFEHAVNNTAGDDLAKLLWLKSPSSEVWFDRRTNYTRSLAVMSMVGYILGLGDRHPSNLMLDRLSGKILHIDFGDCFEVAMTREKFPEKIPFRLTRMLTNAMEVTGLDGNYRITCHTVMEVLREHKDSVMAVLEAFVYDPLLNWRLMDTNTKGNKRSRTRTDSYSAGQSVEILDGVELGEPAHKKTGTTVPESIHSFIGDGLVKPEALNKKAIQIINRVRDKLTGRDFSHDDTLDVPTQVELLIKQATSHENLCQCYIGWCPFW
PI3Kα (p110α/p85α), sequence (P42336 whole entry): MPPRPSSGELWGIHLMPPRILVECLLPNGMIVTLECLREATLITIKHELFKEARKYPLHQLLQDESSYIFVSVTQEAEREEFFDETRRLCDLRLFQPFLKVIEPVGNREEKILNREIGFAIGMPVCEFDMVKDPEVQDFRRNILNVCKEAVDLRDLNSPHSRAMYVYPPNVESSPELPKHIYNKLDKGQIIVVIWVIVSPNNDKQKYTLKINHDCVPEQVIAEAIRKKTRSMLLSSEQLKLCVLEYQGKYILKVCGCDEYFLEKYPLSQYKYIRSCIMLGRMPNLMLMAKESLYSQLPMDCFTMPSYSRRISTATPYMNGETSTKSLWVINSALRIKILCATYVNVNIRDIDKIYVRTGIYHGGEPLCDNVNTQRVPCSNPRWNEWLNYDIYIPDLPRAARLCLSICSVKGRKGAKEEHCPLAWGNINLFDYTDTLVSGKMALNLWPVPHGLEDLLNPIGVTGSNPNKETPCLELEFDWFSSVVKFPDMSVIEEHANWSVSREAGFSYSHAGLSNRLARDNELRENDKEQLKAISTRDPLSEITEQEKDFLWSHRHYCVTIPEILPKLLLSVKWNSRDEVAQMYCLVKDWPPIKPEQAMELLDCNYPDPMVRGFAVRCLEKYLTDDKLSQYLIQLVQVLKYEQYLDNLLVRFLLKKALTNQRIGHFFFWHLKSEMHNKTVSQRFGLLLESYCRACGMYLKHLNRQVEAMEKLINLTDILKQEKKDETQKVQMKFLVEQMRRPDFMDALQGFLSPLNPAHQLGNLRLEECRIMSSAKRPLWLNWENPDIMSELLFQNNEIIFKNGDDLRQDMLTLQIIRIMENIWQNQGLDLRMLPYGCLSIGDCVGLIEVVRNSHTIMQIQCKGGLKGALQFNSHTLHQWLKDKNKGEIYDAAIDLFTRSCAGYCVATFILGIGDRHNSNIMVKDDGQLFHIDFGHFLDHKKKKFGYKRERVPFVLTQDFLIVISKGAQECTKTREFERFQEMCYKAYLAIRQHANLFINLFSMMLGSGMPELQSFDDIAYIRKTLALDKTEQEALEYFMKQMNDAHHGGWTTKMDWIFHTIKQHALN
PI3Kα (p110α/p85α), sequence (P27986 whole entry partner): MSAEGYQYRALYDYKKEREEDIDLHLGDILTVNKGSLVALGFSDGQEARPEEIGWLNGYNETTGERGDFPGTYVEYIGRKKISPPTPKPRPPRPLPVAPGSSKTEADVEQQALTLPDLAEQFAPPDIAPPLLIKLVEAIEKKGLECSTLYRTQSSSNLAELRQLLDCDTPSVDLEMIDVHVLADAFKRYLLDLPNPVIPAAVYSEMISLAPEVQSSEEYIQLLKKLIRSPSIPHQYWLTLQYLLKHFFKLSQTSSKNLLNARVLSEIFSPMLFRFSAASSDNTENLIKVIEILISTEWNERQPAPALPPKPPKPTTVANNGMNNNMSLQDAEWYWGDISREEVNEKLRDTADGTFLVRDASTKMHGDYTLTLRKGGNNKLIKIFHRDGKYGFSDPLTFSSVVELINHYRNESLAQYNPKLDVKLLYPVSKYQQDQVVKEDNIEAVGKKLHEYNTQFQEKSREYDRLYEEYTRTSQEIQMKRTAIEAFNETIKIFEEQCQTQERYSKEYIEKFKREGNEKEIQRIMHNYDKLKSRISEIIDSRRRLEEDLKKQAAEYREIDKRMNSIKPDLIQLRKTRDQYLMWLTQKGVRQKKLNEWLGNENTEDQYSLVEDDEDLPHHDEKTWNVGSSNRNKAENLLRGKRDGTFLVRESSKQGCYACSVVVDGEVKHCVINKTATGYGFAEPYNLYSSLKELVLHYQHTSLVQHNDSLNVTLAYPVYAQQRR

On to `CNC(=O)Nc1ccc(-c2nc(N3CCOC[C@@H]3C)nc3c2C(=O)N(CCOC)CC(C)(C)O3)cc1F` [Example 225, 1-{2-Fluoro-4-[6-(2-methoxyethyl)-8,8-dimethyl-2-((S)-3-methylmorpholin-4-yl)-5-oxo-5,6,7,8-tetrahydro-9-oxa-1,3,6-triazabenzocyclohepten-4-yl]phenyl}-3-methylurea], for which the IC50 in the experiment on U87MG tumour cells (Homo sapiens, U-87 MG, 72 h) is 0.365 µM; with Akt-pS473 in U87MG cells (setting [2]) it was 91 nM; in experiment [1], 0.036 µM. In addition, the “PI3Ka IC50” value at PI3Kα (p110α/p85α) was 1.36 µM.

`CCN1CC(C)(C)Oc2nc(N3CCOC[C@@H]3C)nc(-c3ccc(NC(=O)Nc4ccc(N5CCOCC5)cc4)c(F)c3)c2C1=O` [Example 227, 1-{4-[6-Ethyl-8,8-dimethyl-2-((S)-3-methylmorpholin-4-yl)-5-oxo-5,6,7,8-tetrahydro-9-oxa-1,3,6-triazabenzocyclohepten-4-yl]-2-fluorophenyl}-3-(4-morpholin-4-ylphenyl)urea]: the IC50 was determined as 0.029 µM with U87MG tumour cells (Homo sapiens, U-87 MG, 72 h); 7 nM with Akt-pS473 in U87MG cells (setting [2]); 0.076 µM in experiment [1]. At PI3Kα (p110α/p85α), the “PI3Ka IC50” value amounted to 0.484 µM.

Consider `CC[C@H]1COCCN1c1nc2c(c(-c3ccc(NC(=O)NC)c(F)c3)n1)C(=O)N(CC)CC(C)(C)O2` [Example 228, 1-{4-[6-Ethyl-2-((S)-3-ethylmorpholin-4-yl)-8,8-dimethyl-5-oxo-5,6,7,8-tetrahydro-9-oxa-1,3,6-triazabenzocyclohepten-4-yl]-2-fluorophenyl}-3-methylurea], for which the IC50 turned out to be 0.229 µM in the experiment on U87MG tumour cells (Homo sapiens, U-87 MG, 72 h); 72 nM with Akt-pS473 in U87MG cells (setting [2]); 0.07 µM in experiment [1]. The “PI3Ka IC50” value on PI3Kα (p110α/p85α) is 6.6 µM.

Consider `CCN1CC(C)(C)Oc2nc(N3C4CCC3COC4)nc(-c3ccc(NC(=O)Nc4ccc(C)nc4)c(F)c3)c2C1=O` [Example 229, 1-{4-[6-Ethyl-8,8-dimethyl-2-(3-oxa-8-azabicyclo[3.2.1]oct-8-yl)-5-oxo-5,6,7,8-tetrahydro-9-oxa-1,3,6-triazabenzocyclohepten-4-yl]-2-fluorophenyl}-3-(6-methylpyridin-3-yl)urea], for which the IC50 in the experiment on U87MG tumour cells (Homo sapiens, U-87 MG, 72 h) turned out to be 0.086 µM; in the experiment on Akt-pS473 in U87MG cells (setting [2]), 19 nM; in experiment [1], 0.043 µM. Besides, the “PI3Ka IC50” value at PI3Kα (p110α/p85α) is above 10 µM.

On to `CCN1CC(C)(C)Oc2nc(N3CC4CCC(C3)O4)nc(-c3ccc(NC(=O)Nc4ccc(C(F)(F)F)nc4)c(F)c3)c2C1=O` [Example 230, 1-{4-[6-Ethyl-8,8-dimethyl-2-(8-oxa-3-azabicyclo[3.2.1]oct-3-yl)-5-oxo-5,6,7,8-tetrahydro-9-oxa-1,3,6-triazabenzocyclohepten-4-yl]-2-fluorophenyl}-3-(6-trifluoromethylpyridin-3-yl)urea], for which the IC50 with U87MG tumour cells (Homo sapiens, U-87 MG, 72 h) came to 0.058 µM; in the experiment on Akt-pS473 in U87MG cells (setting [2]) it was 18 nM; in experiment [1], 0.077 µM. Moreover, the “PI3Ka IC50” value on PI3Kα (p110α/p85α) was above 10 µM.

On to `CCN1CC(C)(C)Oc2nc(N3CCOC[C@@H]3C)nc(-c3ccc(NC(=O)Nc4ccncc4)c(F)c3)c2C1=O` [Example 231, 1-{4-[6-Ethyl-8,8-dimethyl-2-((S)-3-methylmorpholin-4-yl)-5-oxo-5,6,7,8-tetrahydro-9-oxa-1,3,6-triazabenzocyclohepten-4-yl]-2-fluorophenyl}-3-pyridin-4-ylurea], for which the IC50 amounted to 0.029 µM in the experiment with U87MG tumour cells (Homo sapiens, U-87 MG, 72 h); 12 nM in the experiment on Akt-pS473 in U87MG cells (setting [2]); 0.016 µM in experiment [1]. Also, at PI3Kα (p110α/p85α), the “PI3Ka IC50” value was found to be 0.103 µM.

Regarding `CCN1CC(C)(C)Oc2nc(N3CCOC[C@@H]3C)nc(-c3ccc(NC(=O)Nc4cnc(N5CCOCC5)cn4)cc3)c2C1=O` [Example 232, 1-{4-[6-Ethyl-8,8-dimethyl-2-((S)-3-methylmorpholin-4-yl)-5-oxo-5,6,7,8-tetrahydro-9-oxa-1,3,6-triazabenzocyclohepten-4-yl]phenyl}-3-(5-morpholin-4-ylpyrazin-2-yl)urea], the IC50 in the experiment on U87MG tumour cells (Homo sapiens, U-87 MG, 72 h) amounted to 0.095 µM; with Akt-pS473 in U87MG cells (setting [2]), 26 nM; in experiment [1] it was 0.032 µM. Moreover, the “PI3Ka IC50” value at PI3Kα (p110α/p85α) worked out at 5.63 µM.

`CCN1CC(C)(C)Oc2nc(N3CC4CCC(C3)O4)nc(-c3ccc(NC(=O)Nc4cnc(N5CCOCC5)cn4)c(F)c3)c2C1=O` [Example 233, 1-{4-[6-Ethyl-8,8-dimethyl-2-(8-oxa-3-azabicyclo[3.2.1]oct-3-yl)-5-oxo-5,6,7,8-tetrahydro-9-oxa-1,3,6-triazabenzocyclohepten-4-yl]-2-fluorophenyl}-3-(5-morpholin-4-ylpyrazin-2-yl)urea]: the IC50 came out at 0.908 µM with U87MG tumour cells (Homo sapiens, U-87 MG, 72 h); 87 nM in the experiment with Akt-pS473 in U87MG cells (setting [2]); 0.068 µM in experiment [1]. The “PI3Ka IC50” value at PI3Kα (p110α/p85α) is above 10 µM.

As to `CCN1CC(C)(C)Oc2nc(N3CC4CCC(C3)O4)nc(-c3ccc(NC(=O)Nc4cnc(N(C)C)cn4)c(F)c3)c2C1=O` [Example 234, 1-(5-Dimethylaminopyrazin-2-yl)-3-{4-[6-ethyl-8,8-dimethyl-2-(8-oxa-3-azabicyclo[3.2.1]oct-3-yl)-5-oxo-5,6,7,8-tetrahydro-9-oxa-1,3,6-triazabenzocyclohepten-4-yl]-2-fluorophenyl}urea], the IC50 with U87MG tumour cells (Homo sapiens, U-87 MG, 72 h) stood at 2.29 µM; in the experiment with Akt-pS473 in U87MG cells (setting [2]), 118 nM; in experiment [1], 0.067 µM. Also, the “PI3Ka IC50” value at PI3Kα (p110α/p85α) was above 10 µM.

`CCN1CC(C)(C)Oc2nc(N3CC4CCC(C3)O4)nc(-c3ccc(NC(=O)Nc4ccc(N5CCN(S(C)(=O)=O)CC5)cc4)c(F)c3)c2C1=O` [Example 235, 1-{4-[6-Ethyl-8,8-dimethyl-2-(8-oxa-3-azabicyclo[3.2.1]oct-3-yl)-5-oxo-5,6,7,8-tetrahydro-9-oxa-1,3,6-triazabenzocyclohepten-4-yl]-2-fluorophenyl}-3-[4-(4-methanesulfonylpiperazin-1-yl)phenyl]urea]: the IC50 in the experiment on U87MG tumour cells (Homo sapiens, U-87 MG, 72 h) was found to be 0.029 µM; with Akt-pS473 in U87MG cells (setting [2]) it was 10 nM; in experiment [1] it was 0.089 µM. Besides, the “PI3Ka IC50” value at PI3Kα (p110α/p85α) is above 7.2 µM.

Take `CCN1CC(C)(C)Oc2nc(N3CC4CCC(C3)O4)nc(-c3ccc(NC(=O)Nc4ccc(N5CCN(C(=O)OC)CC5)cc4)c(F)c3)c2C1=O` [Example 236, 4-[4-(3-{4-[6-Ethyl-8,8-dimethyl-2-(8-oxa-3-azabicyclo[3.2.1]oct-3-yl)-5-oxo-5,6,7,8-tetrahydro-9-oxa-1,3,6-triazabenzocyclohepten-4-yl]-2-fluorophenyl}ureido)phenyl]piperazine-1-carboxylic acid methyl ester]: the IC50 with U87MG tumour cells (Homo sapiens, U-87 MG, 72 h) is 0.029 µM; in the experiment on Akt-pS473 in U87MG cells (setting [2]), 20 nM; in experiment [1], 0.112 µM. Besides, the “PI3Ka IC50” value on PI3Kα (p110α/p85α) was above 7.2 µM.

With `CCN1CC(C)(C)Oc2nc(N3CC4CCC(C3)O4)nc(-c3ccc(NC(=O)Nc4ccc(N5CCS(=O)(=O)CC5)cc4)c(F)c3)c2C1=O` [Example 237, 1-[4-(1,1-Dioxo-1λ6-thiomorpholin-4-yl)phenyl]-3-{4-[6-ethyl-8,8-dimethyl-2-(8-oxa-3-azabicyclo[3.2.1]oct-3-yl)-5-oxo-5,6,7,8-tetrahydro-9-oxa-1,3,6-triazabenzocyclohepten-4-yl]-2-fluorophenyl}urea], the IC50 with U87MG tumour cells (Homo sapiens, U-87 MG, 72 h) came to 0.049 µM; in the experiment on Akt-pS473 in U87MG cells (setting [2]), 80 nM; in experiment [1], 0.039 µM. Also, on PI3Kα (p110α/p85α), the “PI3Ka IC50” value is above 7.2 µM.

On to `C[C@@H](CO)OC(=O)Nc1ccc(-c2nc(N3CC4CCC(C3)O4)nc3c2C(=O)N(C)CC(C)(C)O3)cc1` [Example 238, {4-[6,8,8-Trimethyl-2-(8-oxa-3-azabicyclo[3.2.1]oct-3-yl)-5-oxo-5,6,7,8-tetrahydro-9-oxa-1,3,6-triazabenzocyclohepten-4-yl]phenyl}carbamic acid (S)-2-hydroxy-1-methylethyl ester], for which the IC50 is 1.7 µM in the experiment with U87MG tumour cells (Homo sapiens, U-87 MG, 72 h); above 1000 nM in the experiment on Akt-pS473 in U87MG cells (setting [2]); 0.678 µM in experiment [1]. In addition, on PI3Kα (p110α/p85α), the “PI3Ka IC50” value is above 10 µM.

For `CCN1CC(C)(C)Oc2nc(N3CC4CCC(C3)O4)nc(-c3ccc(NC(=O)Nc4ccc(OC)nc4)c(F)c3)c2C1=O` [Example 240, 1-{4-[6-Ethyl-8,8-dimethyl-2-(8-oxa-3-azabicyclo[3.2.1]oct-3-yl)-5-oxo-5,6,7,8-tetrahydro-9-oxa-1,3,6-triazabenzocyclohepten-4-yl]-2-fluorophenyl}-3-(6-methoxypyridin-3-yl)urea], the IC50 in the experiment with U87MG tumour cells was 0.075 µM; in the experiment with Akt-pS473 in U87MG cells (read-out: U87 Akt-pS473 % Inhibition or IC50, nM (IC50), U87MG cells), 29 nM; in experiment [1], 0.061 µM. In addition, the “PI3Ka IC50” value on PI3Kα (p110α/p85α) is above 10 µM.

As to `CCN1CC(C)(C)Oc2nc(N3C4CCC3COC4)nc(-c3ccc(NC(=O)Nc4cc(C)nc(C)c4)c(F)c3)c2C1=O` [Example 241, 1-(2,6-Dimethylpyridin-4-yl)-3-{4-[6-ethyl-8,8-dimethyl-2-(3-oxa-8-azabicyclo[3.2.1]oct-8-yl)-5-oxo-5,6,7,8-tetrahydro-9-oxa-1,3,6-triazabenzocyclohepten-4-yl]-2-fluorophenyl}urea], the IC50 with U87MG tumour cells (Homo sapiens, U-87 MG, 72 h) turned out to be 0.059 µM; in the experiment on Akt-pS473 in U87MG cells (setting [2]), 43 nM; in experiment [1], 0.165 µM. Further, the “PI3Ka IC50” value on PI3Kα (p110α/p85α) was above 10 µM.
